The values that follow come from patent US7511041B2, “Fused azole-pyrimidine derivatives” (Bayer Pharmaceuticals Corporation, priority 2002, dated 2009).

Series [1] concerns the target T1, Recombinant human PI3Kγ (full length human PI3K p110γ) (Homo sapiens, UniProt P48736).
T1 construct: full length human PI3K p110γ fused with a His6-tag at the C-terminus; His6 (C); purchased ALEXIS BIOCHEMICALS #201-055-C010; host or cells: S. frugiperda 9 insect cells
Briefly: Kinase assay of PI3Kγ (solid-phase lipid kinase assay). It counts as biochemical. The note with it: Table 1, isozyme not given; read-out: in vitro. The source says: [Determination of IC50 Values of Compounds in Kinase Assay of PI3Kγ]
Chemicals and Assay Materials
LABORATORIES (Toronto, Canada). Recombinant human PI3Kγ (full length human PI3K p110γ fused with a His6-tag at the C-terminus expressed in S. frugiperda 9 insect cells) was obtained from ALEXIS BIOCHEMICALS (#201-055-C010; San Diego, Calif.). […] BIOTECH (Buckinghamshire, UK) and ROCHE DIAGNOSTICS (Mannheim, Germany), respectively. Scintillation cocktails and MicroScint PS™ were purchased from PACKARD (Meriden, Conn.). Maxisorp™ plates were purchased from NALGE NUNC INTERNATIONAL K.K. (Tokyo, Japan). All other chemicals not further specified were from WAKO PURE CHEMICALS (Osaka, Japan).
Solid-Phase Lipid Kinase Assay
The plates were subsequently air-dried by incubation for at least 2 hours in a fume hood. The reaction was set up by mixing 25 μl/well of assay buffer 2× (100 mM MOPSO/NaOH, 0.2 M NaCl, pH 7.0, 8 mM MgCl2, 2 mg/ml BSA (fatty acid-free)) and 50 ng/well PI3Kγ in the lipid pre-coated plate and 10× test compounds were added in 2% DMSO. The reaction was started by adding 20 μl/well of ATP mix (final 10 μM ATP; 0.05 μCi/well [γ^33P]ATP). After incubation at RT for 2 hours, the reaction was terminated by adding 50 μl/well stop solution (50 mM EDTA, pH 8.0). The plate was then washed twice with Tris-buffered saline (TBS, pH 7.4). MicroScint PS™ (PACKARD) scintillation mix was added at 100 μl/well, and radioactivity was counted by using a TopCount™ (PACKARD) scintillation counter.
The inhibition percent at each concentration of compound was calculated, and IC50 values were determined from the inhibition of curve.

T1 sequence (P48736 whole entry, the tested form may be a part): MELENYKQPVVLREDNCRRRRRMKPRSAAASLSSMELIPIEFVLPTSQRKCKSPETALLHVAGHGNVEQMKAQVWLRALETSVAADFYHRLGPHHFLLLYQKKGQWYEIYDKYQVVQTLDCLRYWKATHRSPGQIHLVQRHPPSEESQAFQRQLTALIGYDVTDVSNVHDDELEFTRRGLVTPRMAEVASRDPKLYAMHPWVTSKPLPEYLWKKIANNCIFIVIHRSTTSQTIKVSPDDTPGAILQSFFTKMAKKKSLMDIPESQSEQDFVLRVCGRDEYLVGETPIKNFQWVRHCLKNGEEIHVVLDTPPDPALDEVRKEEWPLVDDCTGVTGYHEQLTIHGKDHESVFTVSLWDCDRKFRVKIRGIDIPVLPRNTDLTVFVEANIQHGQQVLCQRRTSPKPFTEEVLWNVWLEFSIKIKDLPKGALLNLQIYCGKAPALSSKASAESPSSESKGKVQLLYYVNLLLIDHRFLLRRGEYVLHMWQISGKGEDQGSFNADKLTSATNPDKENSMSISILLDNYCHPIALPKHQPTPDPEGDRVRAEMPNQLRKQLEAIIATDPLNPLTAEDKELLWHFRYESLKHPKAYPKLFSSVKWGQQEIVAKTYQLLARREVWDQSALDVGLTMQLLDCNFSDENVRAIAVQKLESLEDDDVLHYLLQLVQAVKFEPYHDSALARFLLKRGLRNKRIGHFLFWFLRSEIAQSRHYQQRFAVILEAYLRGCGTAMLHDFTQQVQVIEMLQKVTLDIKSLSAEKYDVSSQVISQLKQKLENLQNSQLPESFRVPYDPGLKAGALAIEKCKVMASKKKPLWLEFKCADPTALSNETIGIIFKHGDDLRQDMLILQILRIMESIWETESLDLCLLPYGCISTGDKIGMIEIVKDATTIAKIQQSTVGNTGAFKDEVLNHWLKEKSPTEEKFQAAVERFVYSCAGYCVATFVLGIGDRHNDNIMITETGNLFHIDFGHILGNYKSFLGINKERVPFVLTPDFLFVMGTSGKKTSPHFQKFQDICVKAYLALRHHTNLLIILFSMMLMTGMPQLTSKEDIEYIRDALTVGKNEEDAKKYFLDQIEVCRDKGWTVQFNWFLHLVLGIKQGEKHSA

`O/C(=C\C1=Nc2ccc(O)cc2C2=NCCN12)c1cccnc1` [Example 1-124] registered a melting point of 302 to 303 °C. Also, the IC50 in series [1] lay in the range of 100 to 500 nM.
The corresponding values for `Cl.O/C(=C\C1=Nc2ccc(O)cc2C2=NCCN12)c1cccnc1` [Example 1-125] are > 300 °C and < 100 nM.
In turn, `COc1ccc2c(c1)C1=NCCN1C(/C=C(\O)c1cccnc1)=N2` [Example 1-126] gave a melting point of 199 °C. In addition, the IC50 in series [1] is 100 to 500 nM.
The corresponding values for `Cl.NCC(=O)Oc1ccc2c(c1)C1=NCCN1C(/C=C(\O)c1cccnc1)=N2` [Example 1-128] are > 300 °C and < 100 nM.
The corresponding values for `Cl.O/C(=C\C1=Nc2ccc(Br)cc2C2=NCCN12)c1cccnc1` [Example 1-129] are > 300 °C and 100 to 500 nM.
Turning to `Cc1ccc2c(c1)C1=NCCN1C(/C=C(\O)c1cccnc1)=N2` [Example 1-131], the melting point stood at 212 °C. Also, the IC50 in series [1] is 100 to 500 nM.
The corresponding values for `CC(=O)Nc1ccc(/C(O)=C/C2=Nc3ccccc3C3=NCCN23)cc1` [Example 1-133] are > 300 °C and 100 to 500 nM.
The corresponding values for `O/C(=C\C1=Nc2ccccc2C2=NCCN12)c1cccnc1` [Example 1-134] are 202 °C and 100 to 500 nM.
As to `Cc1ccc(/C(O)=C/C2=Nc3ccccc3C3=NCCN23)cn1` [Example 1-136], the melting point lay within 217 to 219 °C. In addition, in series [1], the IC50 was 100 to 500 nM.
The corresponding values for `CC(=O)Nc1ccc(/C(O)=C/C2=Nc3ccccc3C3=NCCN23)cn1.Cl` [Example 1-138] are 327 °C and < 100 nM.
The corresponding values for `CNc1ccc(/C(O)=C/C2=Nc3ccccc3C3=NCCN23)cn1` [Example 1-139] are 232 to 237 °C and < 100 nM.
Compound `CCCNc1ccc(/C(O)=C/C2=Nc3ccccc3C3=NCCN23)cn1` [Example 1-140] displayed a melting point of 197 °C. Also, the IC50 in series [1] was in the range of 100 to 500 nM.
The corresponding values for `O/C(=C\C1=Nc2ccccc2C2=NCCN12)c1cnccn1` [Example 1-141] are 233 to 235 °C and 100 to 500 nM.
For `O/C(=C\C1=Nc2ccccc2C2=NCCN12)c1ccco1` [Example 1-143], the melting point came to 192 °C. For the same compound, in series [1], the IC50 lay in the range of 100 to 500 nM.
For `O/C(=C\C1=Nc2ccccc2C2=NCCN12)c1ccoc1` [Example 1-145], the melting point lay in the range of 155 to 156 °C. For the same compound, the IC50 in series [1] was in the range of 100 to 500 nM.
The corresponding values for `O/C(=C\C1=Nc2ccccc2C2=NCCN12)c1cccs1` [Example 1-146] are 193 °C and < 100 nM.
The corresponding values for `O/C(=C\C1=Nc2ccccc2C2=NCCN12)c1ccsc1` [Example 1-148] are 182 to 183 °C and 100 to 500 nM.
The corresponding values for `Cl.O/C(=C\C1=Nc2ccccc2C2=NCCN12)c1ccsc1` [Example 1-149] are > 300 °C and < 100 nM.
With `O/C(=C\C1=Nc2ccccc2C2=NCCN12)c1ccc[nH]1` [Example 1-150], the melting point stood at 247 °C. In series [1], the IC50 is 100 to 500 nM.
The corresponding values for `O/C(=C\C1=Nc2ccccc2C2=NCCN12)c1cc[nH]c1` [Example 1-151] are 247 to 249 °C and < 100 nM.
For the compound `O/C(=C\C1=Nc2ccccc2C2=NCCN12)c1ccno1` [Example 1-152], the melting point was 148 °C. Besides, the IC50 in series [1] fell in the range of 100 to 500 nM.
`O/C(=C\C1=Nc2ccccc2C2=NCCN12)c1nccs1` [Example 1-154] showed a melting point of 208 to 210 °C. The IC50 in series [1] was < 100 nM.
The corresponding values for `Cl.O/C(=C\C1=Nc2ccccc2C2=NCCN12)c1nccs1` [Example 1-155] are > 300 °C and 100 to 500 nM.
The compound `Cc1nc(C)c(/C(O)=C/C2=Nc3ccccc3C3=NCCN23)s1` [Example 1-156] came in with a melting point of 222 °C. Further, the IC50 in series [1] was < 100 nM.
With `Cl.O/C(=C\C1=Nc2ccccc2C2=NCCN12)c1ccc2[nH]cnc2c1` [Example 1-157], the melting point is > 300 °C. For the same compound, in series [1], the IC50 fell in the range of 100 to 500 nM.
The corresponding values for `O/C(=C\C1=Nc2ccccc2C2=NCCN12)C(Cl)(Cl)Cl` [Example 1-158] are 190 °C (dec.) and 100 to 500 nM.
The corresponding values for `O/C(=C\C1=Nc2ncccc2C2=NCCN12)c1ccc2[nH]cnc2c1` [Example 1-159] are > 300 °C and < 100 nM.
The corresponding values for `Cl.O/C(=C\C1=Nc2ncccc2C2=NCCN12)c1ccc2[nH]cnc2c1` [Example 1-160] are 247 °C (dec.) and 100 to 500 nM.
For the compound `CC(=O)Nc1ccc(/C(O)=C/C2=Nc3nc(C)ccc3C3=NCCN23)cn1` [Example 1-161], the melting point is > 300 °C. The IC50 in series [1] is 100 to 500 nM.
The corresponding values for `CC(C)(C)OC(=O)CCc1ccc2c(n1)N=C(/C=C(\O)c1cccnc1)N1CCN=C21` [Example 1-163] are 200 °C and 100 to 500 nM.
The corresponding values for `O/C(=C\C1=Nc2cnccc2C2=NCCN12)c1cccnc1` [Example 1-164] are 230 °C and 100 to 500 nM.
The corresponding values for `O/C(=C\C1=Nc2ccncc2C2=NCCN12)c1cccnc1` [Example 1-165] are 250 °C and 100 to 500 nM.
In the case of `O/C(=C\C1=Nc2ccccc2C2=NCCN12)c1ccccc1` [Example 1-166], the melting point fell in the range of 130 to 139 °C. For the same compound, the IC50 in series [1] was in the range of 500 to 2000 nM.
The corresponding values for `O=[N+]([O-])c1cccc(/C(O)=C/C2=Nc3ccccc3C3=NCCN23)c1` [Example 1-167] are 276 °C and > 2000 nM.
The compound `O=[N+]([O-])c1ccc(/C(O)=C/C2=Nc3ccccc3C3=NCCN23)cc1` [Example 1-168] registered a melting point of 240 to 248 °C. The IC50 in series [1] is > 2000 nM.
The corresponding values for `COc1ccc(/C(O)=C/C2=Nc3ccccc3C3=NCCN23)cc1` [Example 1-169] are 212 to 214 °C and > 2000 nM.
`O/C(=C\C1=Nc2ccccc2C2=NCCN12)c1ccccc1O` [Example 1-170] came in with a melting point of 252 to 256 °C. For the same compound, the IC50 in series [1] was > 2000 nM.
The corresponding values for `O/C(=C\C1=Nc2ccccc2C2=NCCN12)c1cccc(Cl)c1` [Example 1-171] are 224 to 227 °C and > 2000 nM.
The corresponding values for `N#Cc1ccc(/C(O)=C/C2=Nc3ccccc3C3=NCCN23)cc1` [Example 1-172] are 260 to 264 °C and > 2000 nM.
The corresponding values for `O/C(=C\C1=Nc2ccccc2C2=NCCN12)c1ccccn1` [Example 1-173] are 195 °C and 500 to 2000 nM.
For `O/C(=C\C1=Nc2ccccc2C2=NCCN12)c1ccncc1` [Example 1-175], the melting point lay in the range of 204 to 205 °C. Moreover, in series [1], the IC50 was in the range of 100 to 500 nM.
The corresponding values for `N#Cc1ccc(/C(O)=C/C2=Nc3ccccc3C3=NCCN23)s1` [Example 1-177] are 256 °C and 500 to 2000 nM.
The corresponding values for `O=[N+]([O-])c1cc(/C(O)=C/C2=Nc3ccccc3C3=NCCN23)cs1` [Example 1-178] are 255 to 258 °C and > 2000 nM.
The corresponding values for `Cc1nc(NC(=O)OC(C)(C)C)sc1/C(O)=C/C1=Nc2ccccc2C2=NCCN12` [Example 1-179] are > 300 °C and > 2000 nM.
Turning to `O/C(=C\C1=Nc2ccccc2C2=NCCN12)c1csc2ccccc12` [Example 1-180], the melting point was in the range of 220 to 225 °C. In addition, the IC50 in series [1] is > 2000 nM.
The corresponding values for `CCC/C(O)=C/C1=Nc2ccccc2C2=NCCN12` [Example 1-182] are 113 °C and > 2000 nM.
The corresponding values for `CC(C)(C)/C(O)=C/C1=Nc2ccccc2C2=NCCN12` [Example 1-183] are 134 to 138 °C and 500 to 2000 nM.
The corresponding values for `O/C(=C\C1=Nc2ccccc2C2=NCCN12)C(F)(F)F` [Example 1-184] are 240 °C and 500 to 2000 nM.
`COc1cc2c(cc1OC)C1=NCCN1C(/C=C(\O)c1ccccc1)=N2` [Example 1-185] yielded a melting point of 249 to 252 °C. Also, in series [1], the IC50 lay in the range of 500 to 2000 nM.
The corresponding values for `COc1cc2c(cc1OC)C1=NCCN1C(/C=C(\O)c1cccc(Cl)c1)=N2` [Example 1-186] are 257 to 259 °C and > 2000 nM.

Usually melting point stands for the temperature of the solid-liquid transition.
